Results taken from US20090042969A1, “Use of Specific Trifluoromethyl Ketones for Preventing and Treating Pancreatitis” (priority 2005, published 2009).
“Also recorded” adds a separate entry of the source. Where two headings read alike, the source gives them in different places.

Tests used:
[1] = target: T1, human neutrophil elastase (Homo sapiens, UniProt P08246); assay: In vitro inhibitor specificity: neutrophil elastase activity; format: biochemical
T1 construct: This commercial product was purified from human serum by HPLC; purchased Calbiochem; host or cells: purified from human serum
T1 sequence (P08246 30-267): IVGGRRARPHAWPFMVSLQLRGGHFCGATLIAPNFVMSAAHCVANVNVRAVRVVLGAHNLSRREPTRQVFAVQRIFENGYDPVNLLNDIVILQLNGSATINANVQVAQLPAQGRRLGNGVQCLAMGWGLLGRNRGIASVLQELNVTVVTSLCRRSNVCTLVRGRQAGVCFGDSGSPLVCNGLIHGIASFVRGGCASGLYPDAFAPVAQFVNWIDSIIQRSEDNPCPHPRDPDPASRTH
Procedure: Human neutrophil elastase was purchased from Calbiochem (San Diego, Calif., U.S.A.). This commercial product was purified from human serum by HPLC (protein concentration >20 units/mg of protein specific activity; in 50 mM sodium acetate pH 5.5 and 200 mM sodium chloride; purity >95%). […] Porcine pancreatic elastase was purchased from Calbiochem and was purified from porcine pancreas. The specific activity was 50 units/mg of protein in 50 mM potassium phosphate buffer, pH 7.0. […]

[2] = target: T2, pancreatic elastase (Sus scrofa, UniProt P00772); assay: In vitro inhibitor specificity: pancreatic elastase activity; format: biochemical, porcine
T2 construct: was purified from porcine pancreas; purchased Calbiochem; host or cells: purified from porcine pancreas
T2 sequence (P00772 27-266): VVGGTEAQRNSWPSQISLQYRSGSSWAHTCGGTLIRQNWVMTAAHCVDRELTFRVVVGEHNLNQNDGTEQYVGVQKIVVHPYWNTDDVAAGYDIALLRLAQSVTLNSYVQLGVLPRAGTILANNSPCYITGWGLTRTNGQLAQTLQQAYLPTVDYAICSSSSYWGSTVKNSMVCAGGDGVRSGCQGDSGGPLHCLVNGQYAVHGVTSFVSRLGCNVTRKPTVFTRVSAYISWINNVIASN
Procedure: (§1) Caerulein was obtained from Pharmacia, Freiburg, Germany. Human neutrophil elastase was purchased from Calbiochem (San Diego, Calif., U.S.A.). This commercial product was purified from human serum by HPLC (protein concentration >20 units/mg of protein specific activity; in 50 mM sodium acetate pH 5.5 and 200 mM sodium chloride; purity >95%). Human myeloperoxidase was purchased from Calbiochem and purified from blood by HPLC (1 mg/10 ml protein concentration, 150 to 200 units mg protein specific protein activity, in 100 mM sodium chloride, 50 mM sodium acetate, purity >95%). Porcine pancreatic elastase was purchased from Calbiochem and was purified from porcine pancreas. […]
(§2) The trypsin activity (10 mU), myeloperoxidase activity (100 mU) and the neutrophil elastase activity (10 mU) was determined by using the specific fluorogenic substrates [CBZ-Ile-Pro-Arg]2-rhodamine 110 or [CBZ-Ala4]-aminomethylcoumarin (AMC) in 100 mM tris-HCl buffer (pH 8.0), which contained 5 mM CaCl2, 10 μM substrate (final concentration) and 10 mU of bovine trypsin in a volume of 150 μl, at an excitation wavelength of 485 nm and an emission wavelength of 530 nm or an excitation wavelength of 350 nm and an emission wavelength of 460 nm at 37° C. The initial rates of the substrate hydrolysis were measured as arbitrary fluorescence units per minute. […]

[3] = target: T3, trypsin (Bos taurus, UniProt P00760); assay: In vitro inhibitor specificity: trypsin activity; format: biochemical, bovine; details: compound II 1 nM to 1 mM
T3 sequence (P00760 24-246): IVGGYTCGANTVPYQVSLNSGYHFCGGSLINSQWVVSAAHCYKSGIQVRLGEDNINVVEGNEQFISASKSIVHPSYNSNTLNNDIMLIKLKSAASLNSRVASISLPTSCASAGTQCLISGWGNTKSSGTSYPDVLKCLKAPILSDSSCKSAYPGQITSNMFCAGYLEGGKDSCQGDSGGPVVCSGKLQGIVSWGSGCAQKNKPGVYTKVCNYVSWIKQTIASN
Procedure: The trypsin activity (10 mU), myeloperoxidase activity (100 mU) and the neutrophil elastase activity (10 mU) was determined by using the specific fluorogenic substrates [CBZ-Ile-Pro-Arg]2-rhodamine 110 or [CBZ-Ala4]-aminomethylcoumarin (AMC) in 100 mM tris-HCl buffer (pH 8.0), which contained 5 mM CaCl2, 10 μM substrate (final concentration) and 10 mU of bovine trypsin in a volume of 150 μl, at an excitation wavelength of 485 nm and an emission wavelength of 530 nm or an excitation wavelength of 350 nm and an emission wavelength of 460 nm at 37° C. The initial rates of the substrate hydrolysis were measured as arbitrary fluorescence units per minute. The cathepsin B activity (100 mU) and cathepsin L activity (100 mU) were then determined in 0.25 M sodium acetate buffer (pH 5.0), which contained 2 mM EDTA 1 mM DTT, 10 μM of the specific substrate CBZ-[Arg]2-aminomethylcoumarin or 10 μM [CBZ-Phe-Arg]-rhodamine 110 (final concentration) in a final volume of 150 μl, at an excitation wavelength of 350 nm and an emission wavelength of 460 nm or 485 nm and an emission wavelength of 530 nm at 37° C.
The results were calculated in percent of the initial enzyme activity (Kukor et al., 2002).

[4] = target: T4, myeloperoxidase (Homo sapiens, UniProt P05164); assay: In vitro inhibitor specificity: myeloperoxidase activity; format: biochemical; details: compound II 1 nM to 1 mM
T4 construct: purified from blood by HPLC; purchased Calbiochem; host or cells: purified from blood
T4 sequence (P05164 279-745 limits assumed): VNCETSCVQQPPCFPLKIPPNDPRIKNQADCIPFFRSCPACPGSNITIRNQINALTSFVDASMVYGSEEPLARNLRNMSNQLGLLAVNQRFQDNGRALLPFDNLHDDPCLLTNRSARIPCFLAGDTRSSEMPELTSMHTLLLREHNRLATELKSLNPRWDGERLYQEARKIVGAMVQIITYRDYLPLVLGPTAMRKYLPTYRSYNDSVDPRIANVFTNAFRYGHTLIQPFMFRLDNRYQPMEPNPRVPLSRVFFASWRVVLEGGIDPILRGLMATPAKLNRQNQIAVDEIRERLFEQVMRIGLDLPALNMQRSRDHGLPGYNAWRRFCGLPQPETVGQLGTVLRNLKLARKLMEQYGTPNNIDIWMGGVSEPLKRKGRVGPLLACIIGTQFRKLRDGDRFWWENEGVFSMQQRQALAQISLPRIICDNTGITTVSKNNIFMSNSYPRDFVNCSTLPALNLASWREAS
T4 sequence (P05164 165-273 limits assumed): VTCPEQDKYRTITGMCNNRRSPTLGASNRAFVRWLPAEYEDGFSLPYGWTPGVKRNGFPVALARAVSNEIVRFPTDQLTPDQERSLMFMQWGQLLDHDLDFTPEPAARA
Procedure: as §1, §2

[5] = target: T5, cathepsin B (Homo sapiens, UniProt P07858); assay: In vitro inhibitor specificity: cathepsin B activity; format: biochemical; details: compound II 1 nM to 1 mM
T5 construct: This commercial product was purified from human liver by HPLC; purchased Calbiochem; host or cells: purified from human liver

[6] = target: T6, cathepsin L (Homo sapiens, UniProt P07711); assay: In vitro inhibitor specificity: cathepsin L activity; format: biochemical; details: compound II 1 nM to 1 mM
T6 construct: prepared from human liver; purchased Calbiochem; host or cells: prepared from human liver
T6 sequence (P07711 114-333): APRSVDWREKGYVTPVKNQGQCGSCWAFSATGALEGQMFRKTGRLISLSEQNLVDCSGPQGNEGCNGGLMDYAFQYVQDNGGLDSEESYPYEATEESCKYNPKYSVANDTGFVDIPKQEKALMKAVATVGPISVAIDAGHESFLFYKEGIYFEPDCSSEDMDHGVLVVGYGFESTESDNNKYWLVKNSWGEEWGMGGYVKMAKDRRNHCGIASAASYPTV

[7] = Pharmacokinetics (half-life, AUC, bioavailability); design: species or system rats, hamsters and dogs; details: rat, hamster, dog, in vivo
[8] = tested on: neutrophil elastase; assay: Inhibition of neutrophil elastase after oral or intravenous administration; format: in vivo
[9] = tested on: caerulein-induced pancreatitis; assay: Pancreatic water content (edema) in caerulein-induced pancreatitis; format: in vivo, rat; details: oral 240 mg/kg per day
Procedure: (§3) Male Wistar rats (140 to 250 g) were anesthetized with pentobarbital (30 mg/kg). A cannula was placed in the jugular vein, and a supramaximal concentration of caerulein (10 μg/kg per hour) was administered to the animals by infusion for four and twelve hours. […] Animals which received a saline solution as infusion and were fed with compound II through a tube served as control. Each treatment group consisted of five animals. After the exsanguination under ether anesthesia, the pancreas was quickly removed and freed of fat, and tissue blocks were fixed in 5% paraformaldehyde for the histology in paraffin-embedded sections. The largest portion of the pancreas was frozen in liquid nitrogen and stored at −80° C. for later protein analysis and for detection of the enzyme activity.
(§4) The animals were sacrificed after four and twelve hours, and pancreatic tissue, serum and lung tissue were collected for further analyses (see FIG. 2).
Determination of the pancreatic water content: the water content of the pancreas was determined by comparing the freshly obtained tissue (wet weight) with the weight of the same sample after drying (dry weight). In order to ensure complete drying, the tissue was incubated at […] for 24 hours, a constant weight being reached. The results were represented as percentage of the difference between the wet weight and the dry weight divided by the original wet weight.

[10] = tested on: caerulein-induced pancreatitis; assay: Myeloperoxidase activity in pancreatic homogenates in caerulein-induced pancreatitis; format: in vivo, rat; details: oral 240 mg/kg per day
Procedure: as §3, §4
To measure the myeloperoxidase (MPO) activity, the tissue was thawed and homogenized on ice in 20 mM potassium phosphate buffer (pH 7.4) and centrifuged at 20 000 g at 4° C. for 10 minutes. The pellet was resuspended in […] potassium phosphate buffer (pH 6.0) which contained 0.5% cethyltrimethylammonium bromide. […]
The original increase in the absorption at 450 nm was measured at room temperature using a Dynatech MR 5000 ELISA reader. […]

[11] = tested on: caerulein-induced pancreatitis; assay: Morphological damage of the pancreas in caerulein-induced pancreatitis; format: in vivo, rat
Procedure: as §3, §4

[12] = tested on: caerulein-induced pancreatitis; assay: Serum amylase activity (hyperamylasemia) in caerulein-induced pancreatitis; format: in vivo, rat; details: oral administration; four and twelve hours of pancreatitis
Procedure: as §3, §4

[13] = tested on: caerulein-induced pancreatitis; assay: Myeloperoxidase activity and morphology of the lung during caerulein-induced pancreatitis; format: in vivo, rat
Procedure: as §3, §4
Pancreatitis influences not only the pancreas but also leads to a systemic inflammatory response which affects other organs such as the kidneys or the lung. […] The morphological differences in the lung tissues during caerulein-induced pancreatitis consisted of accumulations of alveolar fluid and a progressive thickening, hyperemia and neutrophil infiltration of the intraalveolar tissue. […]

[14] = compound II together with caerulein

For COc1ccc(C(=O)N[C@H](C(=O)N2CCC[C@H]2C(=O)N[C@H](C(=O)C(F)(F)F)C(C)C)C(C)C)cc1 [compound II], the “inhibitory activity for human neutrophil elastase by comparison with pancreatic elastase” value [1] was “five times higher”, the Ki [2] was 200 nM and the IC50 ([2]; FIG. 1) was 1000 nM. The “influence on trypsin activity” value [3] was “not significantly influenced”, the “influence on trypsin activity” value ([3]; listed as Compound II) was “does not inhibit” and the “influence on myeloperoxidase activity” value [4] was “not significantly influenced; also recorded: excluded”. The “influence on myeloperoxidase activity” value ([4]; listed as Compound II) was “does not inhibit”, the “influence on cathepsin B activity” value [5] was “not significantly influenced” and the “influence on cathepsin B activity” value ([5]; listed as Compound II) was “does not inhibit”. For the same compound, the “influence on cathepsin L activity” value [6] was “not significantly influenced”, the “influence on cathepsin L activity” value ([6]; listed as Compound II) was “does not inhibit” and the AUC ([7]; intravenous, read-out: intravenous AUC) was 1360 to 3180 ng·h/mL. For the same compound, the bioavailability ([7]; oral versus intravenous AUC, read-out: percentage bioavailability) was 26 to 82%, the AUC ([7]; oral, read-out: oral bioavailability (AUC)) was 355 to 1400 ng·h/mL and the half-life ([7]; rats, hamsters and dogs, read-out: biological half-life) was 0.82 to 2 h. For the same compound, the “dose to inhibit 50% of the enzyme activity” value ([8]; intravenous administration) was 0.59 mg/kg of body weight, the “dose to inhibit 50% of the enzyme activity” value ([8]; oral administration) was 4.9 mg/kg of body weight and the “inhibition of neutrophil elastase” value ([8]; oral administration of 10 mg/kg of body weight) was 84%. The “change in the water content of the pancreas” value ([9]; compound II alone (control 2), no caerulein) was “did not lead to a significant change”, the “formation of pancreatic edemas (water content)” value ([9]; four and twelve hours after starting caerulein infusion) was “significant reduction” and the “reduction in MPO activity in pancreatic tissue” value [10] was “more than 50%”. For the same compound, the “morphological changes like those observed in acute pancreatitis” value ([11]; compound II alone, no caerulein) was “did not lead to any morphological changes”, the “development of the interstitial edema and the intracellular vacuolization” value [11, 14] was “prevented” and the “number of infiltrating inflammatory cells in pancreas” value [11, 14] was “greatly reduced”. The “amylase activity in serum” value [12] was “significantly reduced”, the “morphological differences in lung tissue (alveolar fluid, thickening, hyperemia, neutrophil infiltration)” value [13] was “reduced” and the “MPO activity in lung tissue” value ([13]; effect greater after twelve than four hours) was “significant reduction”.
